What was measured:
[1] = Real-time adsorption of model compounds monitored by RQCM; type: physicochemical; conditions: in situ RQCM; for adsorption (saturation) that took place within the first 2 min: silk pre-coated gold electrode
Description: (§1) This process was repeated according to the designated architectures in which the outmost layer was always silk layer. In this work, two different loading modalities were used in the release study for each compound, each with two different rinsing methods. UV-Vis absorbance spectra and a research quartz crystal microbalance (RQCM) were used for verifying the deposition.
The real-time adsorption of model compounds on silk pre-coated gold electrode surface was monitored using research quartz crystal microbalance (RQCM).

[2] = Compound release from multilayer silk coatings on glass slides in PBS; type: physicochemical; conditions: room temperature
Description: as §1
The compound release from the multilayer coatings on glass microscope slides (25×75 mm on both sides) was investigated by incubating the slides in 5 ml PBS buffer solutions at room temperature with gentle shaking (60 rpm). At preset time intervals, 2 ml supernatant was sampled and 2 ml fresh PBS solution was then added to replenish the sample that was removed in order to maintain a constant volume. The supernatant was analyzed for the amount of released model compound using UV-vis spectroscopy for optical densities at a specific wavelength for each compound (562 nm for Rhodamine B, 609 nm for Even Blue, and 358 nm for Azoalbumin) and compared to a standard curve generated for each compound. The amount of released compound in each sample was summed with the amounts at each previous time point and divided by the total amount to obtain cumulative release value. Experiments were run in triplicates (n=3). Data in the graphs represent the average±standard deviation.

| Compound | adsorption (saturation) that took place within the first 2 min [1] | initial burst, compared with Rhodamine B [2] | adsorption on silk coating, compared with Even Blue [1] |
| --- | --- | --- | --- |
| Cc1cc(-c2ccc(/N=N/c3ccc4c(S(=O)(=O)[O-])cc(S(=O)(=O)[O-])c(N)c4c3O)c(C)c2)ccc1/N=N/c1ccc2c(S(=O)(=O)[O-])cc(S(=O)(=O)[O-])c(N)c2c1O.[Na+].[Na+].[Na+].[Na+] [Even Blue] | ~92% | no noticeable difference | – |
| CCN(CC)c1ccc2c(-c3ccccc3C(=O)O)c3ccc(=[N+](CC)CC)cc-3oc2c1 [Rhodamine B] | ~92% | – | higher adsorption |
| Azoalbumin: model molecule representing therapeutically relevant proteins | ~82% | – | – |

Reference: patent publication US9731052B2, “Methods for stepwise deposition of silk fibroin coatings” (TRUSTEES OF TUFTS COLLEGE, priority 2005, dated 2017)
